Results published in patent US11827657B2, “Boron containing pyrazole compounds, compositions comprising them, methods and uses thereof” (BOEHRINGER INGELHEIM ANIMAL HEALTH USA INC., priority 2020, dated 2023).

These molecules were tested against JAK1 (Homo sapiens, UniProt P23458) (assay: Biochemical Kinase Assay (JAK), 33P-ATP filter-binding). Conditions: Biochemical Kinase Inhibition Assay; potency level of IC50; read-out: JAK1 (range).
Protocol: Biochemical Kinase Assay Protocol (JAK) • Reagent: Base Reaction buffer; 20 mM Hepes (pH 7.5), 10 mM MgCl2, 1 mM EGTA, 0.02% Brij™ 35, 0.02 mg/ml BSA, 0.1 mM Na3VO4, 2 mM DTT, 1% DMSO, where required cofactors were added individually to each kinase reaction.
Reaction Procedure: • 1. Prepared indicated substrate in freshly prepared Base Reaction Buffer • 2. Delivered any required cofactors to the substrate solution above • 3. Delivered indicated kinase into the substrate solution and gently mix • 4. Delivered compounds in DMSO into the kinase reaction mixture by Acoustic technology (Echo550; nanoliter range), incubated for 20 minutes at room temperature • 5. Delivered 33P-ATP into the reaction mixture to initiate the reaction. • 6. Incubated kinase reaction for 2 hours at room temperature • 7. Reactions were spotted onto P81 ion exchange paper • 8. Detected kinase activity by filter-binding method.
Compounds according to the present invention were tested in the Biochemical Kinase Assay Protocol. The results are provided below in Table 1, wherein the potency levels A, B, and C in the columns labeled JAK1 (range) correspond to IC50 as follows: A<10 nM; B=10-50 nM and C>50 nM. The Example Number entries formatted ##a represent stereoisomer one and entries formatted ##b represent stereoisomer two.

Chain of JAK1 (P23458 whole entry, species assumed): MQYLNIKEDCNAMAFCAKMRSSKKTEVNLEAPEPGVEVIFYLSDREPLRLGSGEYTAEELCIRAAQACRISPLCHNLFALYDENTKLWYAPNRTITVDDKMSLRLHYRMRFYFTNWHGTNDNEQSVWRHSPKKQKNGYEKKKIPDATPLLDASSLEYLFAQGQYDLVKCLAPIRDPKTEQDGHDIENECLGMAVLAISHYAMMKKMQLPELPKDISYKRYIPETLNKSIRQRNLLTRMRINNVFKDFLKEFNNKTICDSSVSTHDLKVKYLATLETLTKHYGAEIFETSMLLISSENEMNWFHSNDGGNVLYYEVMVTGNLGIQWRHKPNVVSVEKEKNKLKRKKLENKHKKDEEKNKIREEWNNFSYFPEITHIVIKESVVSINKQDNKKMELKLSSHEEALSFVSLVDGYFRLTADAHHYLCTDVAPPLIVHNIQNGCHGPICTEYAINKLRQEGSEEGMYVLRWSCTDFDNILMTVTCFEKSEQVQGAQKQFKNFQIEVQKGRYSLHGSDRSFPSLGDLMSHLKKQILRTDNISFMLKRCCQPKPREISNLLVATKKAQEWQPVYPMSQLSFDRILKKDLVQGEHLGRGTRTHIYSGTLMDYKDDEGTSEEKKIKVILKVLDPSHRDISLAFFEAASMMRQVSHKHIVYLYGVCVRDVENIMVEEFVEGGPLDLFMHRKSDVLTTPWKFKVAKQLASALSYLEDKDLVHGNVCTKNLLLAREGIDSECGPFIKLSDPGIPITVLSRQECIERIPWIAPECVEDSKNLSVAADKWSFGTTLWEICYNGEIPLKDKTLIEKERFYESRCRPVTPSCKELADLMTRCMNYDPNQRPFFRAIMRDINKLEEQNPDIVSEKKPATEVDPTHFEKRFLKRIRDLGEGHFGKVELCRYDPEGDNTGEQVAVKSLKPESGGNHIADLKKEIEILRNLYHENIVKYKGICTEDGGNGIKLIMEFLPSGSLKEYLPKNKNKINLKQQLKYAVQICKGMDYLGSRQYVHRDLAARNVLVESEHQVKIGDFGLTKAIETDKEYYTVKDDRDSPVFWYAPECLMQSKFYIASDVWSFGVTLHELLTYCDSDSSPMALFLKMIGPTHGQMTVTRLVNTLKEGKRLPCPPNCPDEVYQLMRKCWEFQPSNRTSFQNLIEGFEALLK

Structure (SMILES) | IC50
Cc1cc(Nc2nn(C3COCCC3C#N)cc2C(N)=O)cc2c1B(O)OC2 (stereo not drawn) [Example 6, 1-(trans-4-cyanotetrahydro-2H-pyran-3-yl)-3-[(1-hydroxy-7-methyl-3H-2,1-benzoxaborol-5-yl)amino]pyrazole-4-carboxamide] | < 10 nM
CC1=C(C)c2cc(Nc3nn([C@@H]4CCCC[C@H]4C#N)cc3C(N)=O)cc(C)c2OB1O (relative stereo) [Example 25, 1-(trans-2-cyanocyclohexyl)-3-[(2-hydroxy-3,4,8-trimethyl-1,2-benzoxaborinin-6-yl)amino]pyrazole-4-carboxamide] | 10 to 50 nM
N#C[C@@H]1CCOC[C@H]1n1cc(C(N)=O)c(Nc2ccc3c(c2)OB(O)C=C3)n1 (relative stereo) [Example 2, 1-[trans-4-cyanotetrahydro-2H-pyran-3-yl]-3-[(2-hydroxy-1,2-benzoxaborinin-7-yl)amino]pyrazole-4-carboxamide] | > 50 nM
CC(C)C1=CB(O)Oc2ccc(Nc3nn(C4COCCC4C#N)cc3C(N)=O)cc21 (stereo not drawn) [Example 30, 1-[trans-4-cyanotetrahydro-2H-pyran-3-yl]-3-[(2-hydroxy-4-isopropyl-1,2-benzoxaborinin-6-yl)amino]pyrazole-4-carboxamide] | < 10 nM
CC(C)(C)C1=Cc2cc(Nc3nn([C@@H]4CCCC[C@H]4C#N)cc3C(N)=O)ccc2OB1O (relative stereo) [Example 21, 3-[(3-tert-butyl-2-hydroxy-1,2-benzoxaborinin-6-yl)amino]-1-(trans-2-cyanocyclohexyl)pyrazole-4-carboxamide] | < 10 nM
CCC1=C(CC)c2cc(Nc3nn([C@@H]4CCC[C@H]4C#N)cc3C(N)=O)ccc2OB1O (relative stereo) [Example 40, 1-(trans-2-cyanocyclopentyl)-3-[(3,4-diethyl-2-hydroxy-1,2-benzoxaborinin-6-yl)amino]pyrazole-4-carboxamide] | 10 to 50 nM
CCC1=CB(O)Oc2ccc(Nc3nn([C@@H]4COCC[C@H]4C#N)cc3C(N)=O)cc21 (relative stereo) [Example 33, 1-(trans-4-cyanotetrahydro-2H-pyran-3-yl)-3-[(4-ethyl-2-hydroxy-1,2-benzoxaborinin-6-yl)amino]pyrazole-4-carboxamide] | < 10 nM
Cc1cc(Nc2nn([C@@H]3CCC[C@H]3C#N)cc2C(N)=O)cc2c1OB(O)C=C2 (relative stereo) [Example 31, 1-(trans-2-cyanocyclopentyl)-3-[(2-hydroxy-8-methyl-1,2-benzoxaborinin-6-yl)amino]pyrazole-4-carboxamide] | < 10 nM
CCC1=Cc2cc(Nc3nn([C@@H]4COCC[C@H]4C#N)cc3C(N)=O)ccc2OB1O (relative stereo) [Example 56, 1-(trans-4-cyanotetrahydro-2H-pyran-3-yl)-3-[(3-ethyl-2-hydroxy-1,2-benzoxaborinin-6-yl)amino]pyrazole-4-carboxamide] | < 10 nM
CC1=CB(O)Oc2ccc(Nc3nn(C4COCCC4C#N)cc3C(N)=O)cc21 (single isomer, unassigned) [Example 3b, 1-[trans-4-cyanotetrahydropyran-3-yl]-3-[(2-hydroxy-4-methyl-1,2-benzoxaborinin-6-yl)amino]pyrazole-4-carboxamide (stereoisomer two)] | 10 to 50 nM
CC1(C)OB(O)c2cc(Nc3nn(C4COCCC4C#N)cc3C(N)=O)ccc21 (stereo not drawn) [Example 36, 1-[trans-4-cyanotetrahydro-2H-pyran-3-yl]-3-[(1-hydroxy-3,3-dimethyl-2,1-benzoxaborol-6-yl)amino]pyrazole-4-carboxamide] | < 10 nM
CC1=Cc2cc(Nc3nn([C@@H]4COCC[C@H]4C#N)cc3C(N)=O)ccc2OB1O (relative stereo) [Example 5, 1-(trans-4-cyanotetrahydro-2H-pyran-3-yl)-3-((2-hydroxy-3-methyl-2H-benzo[e][1,2]oxaborinin-6-yl)amino)-1H-pyrazole-4-carboxamide] | < 10 nM
N#CC1CCOCC1n1cc(C(N)=O)c(Nc2cc(Cl)c3c(c2)COB3O)n1 (stereo not drawn) [Example 52, 3-((7-chloro-1-hydroxy-1,3-dihydrobenzo[c][1,2]oxaborol-5-yl)amino)-1-(trans-4-cyanotetrahydro-2H-pyran-3-yl)-1H-pyrazole-4-carboxamide] | < 10 nM

Second part, the molecule after the results:

IC50 | Structure (SMILES)
< 10 nM | N#C[C@@H]1CCOC[C@H]1n1cc(C(N)=O)c(Nc2ccc3c(c2)C(Cl)=CB(O)O3)n1 (single isomer, unassigned) [Example 43a, 3-[(4-chloro-2-hydroxy-1,2-benzoxaborinin-6-yl)amino]-1-[trans-4-cyanotetrahydro-2H-pyran-3-yl]pyrazole-4-carboxamide]
< 10 nM | Cc1cc(Nc2nn([C@@H]3COCC[C@H]3C#N)cc2C(N)=O)cc2c1OB(O)C=C2 (single isomer, unassigned) [Example 27b, 1-[trans-4-cyanotetrahydropyran-3-yl]-3-[(2-hydroxy-8-methyl-1,2-benzoxaborinin-6-yl)amino]pyrazole-4-carboxamide]
> 50 nM | Cc1c(Nc2nn([C@@H]3COCC[C@H]3C#N)cc2C(N)=O)ccc2c1C=CB(O)O2 (single isomer, unassigned) [Example 17b, 1-[trans-4-cyanotetrahydropyran-3-yl]-3-[(2-hydroxy-5-methyl-1,2-benzoxaborinin-6-yl)amino]pyrazole-4-carboxamide]
< 10 nM | CC1(C)OB(O)c2cc(Nc3nn([C@@H]4COCC[C@H]4C#N)cc3C(N)=O)ccc21 (single isomer, unassigned) [Example 36b, 1-[trans-4-cyanotetrahydro-2H-pyran-3-yl]-3-[(1-hydroxy-3,3-dimethyl-2,1-benzoxaborol-6-yl)amino]pyrazole-4-carboxamide]
> 50 nM | Cc1cc2c(cc1Nc1nn([C@@H]3COCC[C@H]3C#N)cc1C(N)=O)C=CB(O)O2 (single isomer, unassigned) [Example 46b, 1-(trans-4-cyanotetrahydro-2H-pyran-3-yl)-3-((2-hydroxy-7-methyl-2H-benzo[e][1,2]oxaborinin-6-yl)amino)-1H-pyrazole-4-carboxamide]
< 10 nM | N#C[C@@H]1CCOC[C@H]1n1cc(C(N)=O)c(Nc2ccc3c(c2)B(O)OCC3)n1 (single isomer, unassigned) [Example 42a, 1-[trans-4-cyanotetrahydro-2H-pyran-3-yl]-3-[(1-hydroxy-3,4-dihydro-2,1-benzoxaborinin-7-yl)amino]pyrazole-4-carboxamide]
< 10 nM | N#C[C@@H]1CCOC[C@H]1n1cc(C(N)=O)c(Nc2cc(F)c3c(c2)C=CB(O)O3)n1 (single isomer, unassigned) [Example 44a, 1-[trans-4-cyanotetrahydro-2H-pyran-3-yl]-3-[(8-fluoro-2-hydroxy-1,2-benzoxaborinin-6-yl)amino]pyrazole-4-carboxamide]
10 to 50 nM | N#C[C@@H]1CCOC[C@H]1n1cc(C(N)=O)c(Nc2cc(F)c3c(c2)COB3O)n1 (single isomer, unassigned) [Example 38a, 1-[trans-4-cyanotetrahydro-2H-pyran-3-yl]-3-[(7-fluoro-1-hydroxy-3H-2,1-benzoxaborol-5-yl)amino]pyrazole-4-carboxamide]
< 10 nM | CC1=Cc2cc(Nc3nn([C@@H]4COCC[C@H]4C#N)cc3C(N)=O)cc(F)c2OB1O (single isomer, unassigned) [Example 14a, 1-[trans-4-cyanotetrahydro-2H-pyran-3-yl]-3-[(8-fluoro-2-hydroxy-3-methyl-1,2-benzoxaborinin-6-yl)amino]pyrazole-4-carboxamide]
